Assay results taken from PubChem BioAssay AID190 (DTP/NCI, 2004).
Values joined by “and” are separate entries in the source; they are usually repeats but may differ in a detail not shown here. Equal values may be shown once. Toxic doses and inconclusive results are not listed. Rule for the calls: active = survival T/C of 150% or more; inactive = T/C below 125% in these data.

System: AKR/Lw mice, AKR lymphoma ip, median survival T/C
Assay: NCI In Vivo Anticancer Drug Screen. Data for tumor model Lymphoma AKR (Transplanted) (intraperitoneal) in AKR/Lw mice
Conditions: endpoint: median survival time, higher = longer survival
Method: The antitumor activity of compounds was measured in mice bearing transplantable tumors. Survival or tumor size were measured and the results are expressed as the measurement made in the treated group (T) divided by the measurement made in the vehicle treated control group (C). The tumor model used in this assay is Lymphoma AKR (Transplanted) (intraperitoneal) in AKR/Lw mice

[1] = dose: 25.0 mg/kg/injection, schedule: Q04DX003 (ip), vehicle: saline
[2] = dose: 75.0 mg/kg/injection, schedule: Q01DX001 (ip), vehicle: saline
[3] = dose: 100.0 mg/kg/injection, schedule: Q01DX001 (ip), vehicle: Klucel (hydroxypropylcellulose) (HPC)
[4] = dose: 100.0 mg/kg/injection, schedule: Q01DX001 (ip), vehicle: saline
[5] = dose: 200.0 mg/kg/injection, schedule: Q01DX001 (ip), vehicle: Klucel (hydroxypropylcellulose) (HPC)
[6] = dose: 400.0 mg/kg/injection, schedule: Q01DX001 (ip), vehicle: Klucel (hydroxypropylcellulose) (HPC)
[7] = dose: 200.0 mg/kg/injection, schedule: Q01DX001 (ip), vehicle: saline
[8] = dose: 400.0 mg/kg/injection, schedule: Q01DX001 (ip), vehicle: saline
[9] = dose: 12.5 mg/kg/injection, schedule: Q01DX001 (ip), vehicle: saline
[10] = dose: 25.0 mg/kg/injection, schedule: Q01DX001 (ip), vehicle: saline
[11] = dose: 50.0 mg/kg/injection, schedule: Q01DX001 (ip), vehicle: saline

Measured: T/C

NC(CSC(c1ccccc1)(c1ccccc1)c1ccccc1)C(=O)O (configuration not stated)
inactive: dose: 0.6 mg/kg/injection, schedule: Q01DX009 (ip), vehicle: Klucel (hydroxypropylcellulose) (HPC) 111 % of control | dose: 1.2 mg/kg/injection, schedule: Q01DX009 (ip), vehicle: Klucel (hydroxypropylcellulose) (HPC) 114 % of control and 117 % of control | dose: 2.5 mg/kg/injection, schedule: Q01DX009 (ip), vehicle: Klucel (hydroxypropylcellulose) (HPC) 117 % of control | dose: 5.0 mg/kg/injection, schedule: Q01DX009 (ip), vehicle: Klucel (hydroxypropylcellulose) (HPC) 88 % of control and 120 % of control | dose: 6.0 mg/kg/injection, schedule: Q01DX009 (ip), vehicle: Klucel (hydroxypropylcellulose) (HPC) 94 % of control | dose: 6.2 mg/kg/injection, schedule: Q04DX003 (ip), vehicle: Klucel (hydroxypropylcellulose) (HPC) 108 % of control | dose: 6.25 mg/kg/injection, schedule: Q01DX009 (ip), vehicle: Klucel (hydroxypropylcellulose) (HPC) 94 % of control | dose: 10.0 mg/kg/injection, schedule: Q01DX009 (ip), vehicle: Klucel (hydroxypropylcellulose) (HPC) 102 % of control | dose: 12.0 mg/kg/injection, schedule: Q01DX009 (ip), vehicle: Klucel (hydroxypropylcellulose) (HPC) 88 % of control | dose: 12.5 mg/kg/injection, schedule: Q01DX009 (ip), vehicle: Klucel (hydroxypropylcellulose) (HPC) 94 % of control | dose: 12.5 mg/kg/injection, schedule: Q04DX003 (ip), vehicle: Klucel (hydroxypropylcellulose) (HPC) 91 % of control and 94 % of control and 102 % of control | dose: 20.0 mg/kg/injection, schedule: Q01DX009 (ip), vehicle: Klucel (hydroxypropylcellulose) (HPC) 102 % of control and 108 % of control | dose: 25.0 mg/kg/injection, schedule: Q01DX009 (ip), vehicle: Klucel (hydroxypropylcellulose) (HPC) 91 % of control and 100 % of control | dose: 25.0 mg/kg/injection, schedule: Q01DX009 (ip), vehicle: saline 94 % of control and 97 % of control and 109 % of control | dose: 25.0 mg/kg/injection, schedule: Q04DX003 (ip), vehicle: Klucel (hydroxypropylcellulose) (HPC) 94 % of control and 97 % of control | [1] 102 % of control | dose: 37.5 mg/kg/injection, schedule: Q01DX001 (ip), vehicle: saline 102 % of control and 103 % of control (2×) | dose: 50.0 mg/kg/injection, schedule: Q01DX009 (ip), vehicle: saline 105 % of control | dose: 50.0 mg/kg/injection, schedule: Q04DX003 (ip), vehicle: saline 97 % of control | [2] 95 % of control and 103 % of control and 110 % of control | [3] 97 % of control | [4] 100 % of control | dose: 100.0 mg/kg/injection, schedule: Q04DX003 (ip), vehicle: saline 91 % of control | dose: 150.0 mg/kg/injection, schedule: Q01DX001 (ip), vehicle: saline 90 % of control and 105 % of control and 106 % of control | [5] 109 % of control | [6] 118 % of control

CCCCCCCCC(=O)N1CC(C)OC(C)C1 (configuration not stated)
inactive: [4] 100 % of control | [7] 94 % of control | [8] 100 % of control

CS(=O)(=O)OCCCNCCCOS(C)(=O)=O
active: dose: 108.0 mg/kg/injection, schedule: Q04DX003 (ip), vehicle: water 192 % of control
inactive: dose: 1.6 mg/kg/injection, schedule: Q01DX009 (ip), vehicle: saline 94 % of control | dose: 1.9 mg/kg/injection, schedule: Q01DX009 (ip), vehicle: saline 96 % of control | dose: 2.0 mg/kg/injection, schedule: Q01DX009 (ip), vehicle: saline 107 % of control | dose: 3.1 mg/kg/injection, schedule: Q01DX009 (ip), vehicle: saline 88 % of control and 100 % of control and 115 % of control | dose: 3.8 mg/kg/injection, schedule: Q01DX009 (ip), vehicle: saline 106 % of control | dose: 4.0 mg/kg/injection, schedule: Q01DX009 (ip), vehicle: saline 103 % of control | dose: 6.2 mg/kg/injection, schedule: Q01DX009 (ip), vehicle: saline 102 % of control | dose: 6.3 mg/kg/injection, schedule: Q01DX009 (ip), vehicle: saline 97 % of control | dose: 8.0 mg/kg/injection, schedule: Q01DX009 (ip), vehicle: saline 100 % of control | [9] 124 % of control | dose: 12.5 mg/kg/injection, schedule: Q04DX003 (ip), vehicle: saline 102 % of control and 106 % of control | [10] 110 % of control | [1] 106 % of control and 112 % of control | dose: 27.0 mg/kg/injection, schedule: Q04DX003 (ip), vehicle: water 113 % of control | dose: 45.0 mg/kg/injection, schedule: Q01DX001 (ip), vehicle: saline 112 % of control | dose: 60.0 mg/kg/injection, schedule: Q01DX009 (ip), vehicle: saline 100 % of control and 123 % of control | [2] 108 % of control

C[C@]12CCC(=O)C=C1CC[C@@H]1[C@@H]2[C@@H](O)C[C@@]2(C)[C@H]1CC[C@]2(O)C(=O)CO
inactive: dose: 5.0 mg/kg/injection, schedule: Q01DX005 (sc), vehicle: steriod suspending solution 117 % of control | dose: 10.0 mg/kg/injection, schedule: Q01DX005 (sc), vehicle: steriod suspending solution 106 % of control | dose: 20.0 mg/kg/injection, schedule: Q01DX005 (sc), vehicle: steriod suspending solution 106 % of control | dose: 25.0 mg/kg/injection, schedule: Q01DX005 (sc), vehicle: steriod suspending solution 94 % of control | dose: 50.0 mg/kg/injection, schedule: Q01DX005 (sc), vehicle: steriod suspending solution 107 % of control

Cc1cccc(C)c1NC(=S)N(C)C
inactive: dose: 2.5 mg/kg/injection, schedule: Q04DX003 (ip), vehicle: Klucel (hydroxypropylcellulose) (HPC) 91 % of control | dose: 5.0 mg/kg/injection, schedule: Q04DX003 (ip), vehicle: Klucel (hydroxypropylcellulose) (HPC) 94 % of control | dose: 10.0 mg/kg/injection, schedule: Q04DX003 (ip), vehicle: Klucel (hydroxypropylcellulose) (HPC) 102 % of control | [3] 92 % of control | [6] 111 % of control

Cc1cnc2c(N)[nH]nc2n1
inactive: dose: 25.0 mg/kg/injection, schedule: Q01DX001 (ip), vehicle: Klucel (hydroxypropylcellulose) (HPC) 100 % of control | dose: 50.0 mg/kg/injection, schedule: Q01DX001 (ip), vehicle: Klucel (hydroxypropylcellulose) (HPC) 97 % of control | [3] 106 % of control

CC[CH](C)[Hg][c]1cccc2ccccc12 (configuration not stated)
inactive: [3] 91 % of control | [5] 86 % of control

CC(=O)NC1CC2c3ccccc3C1([N+](=O)[O-])c1ccccc12 (configuration not stated)
inactive: [3] 104 % of control | [5] 97 % of control | [6] 102 % of control

CC1(C)CCN1Cc1ccccc1
inactive: [9] 97 % of control | [10] 100 % of control | [11] 100 % of control

COC(=O)C(COS(=O)(=O)c1ccccc1)NC(=O)OCc1ccccc1 (configuration not stated)
inactive: [4] 94 % of control | [7] 97 % of control | [8] 102 % of control

CN(C)CCCc1c2ccccc2nc2ccc(Cl)cc12
inactive: dose: 6.0 mg/kg/injection, schedule: Q01DX001 (ip), vehicle: saline 100 % of control | dose: 12.0 mg/kg/injection, schedule: Q01DX001 (ip), vehicle: saline 103 % of control | [10] 109 % of control

COc1cc2c(cc1OC)[C@H]1CNC[C@H]1[C@@H](c1ccccc1)C2
inactive: dose: 75.0 mg/kg/injection, schedule: Q04DX003 (ip), vehicle: saline 110 % of control | [4] 105 % of control | dose: 150.0 mg/kg/injection, schedule: Q04DX003 (ip), vehicle: saline 103 % of control | [7] 100 % of control | [8] 97 % of control

CN(CCOc1ccccc1O)CCOc1ccccc1O
inactive: [3] 105 % of control | dose: 100.0 mg/kg/injection, schedule: Q04DX003 (ip), vehicle: Klucel (hydroxypropylcellulose) (HPC) 100 % of control | [5] 107 % of control | dose: 200.0 mg/kg/injection, schedule: Q04DX003 (ip), vehicle: Klucel (hydroxypropylcellulose) (HPC) 92 % of control | [6] 105 % of control

CC1(C)N=C(N)N=C(N)N1c1cc(Cl)ccc1Cl
inactive: [10] 93 % of control | [11] 93 % of control

C#CCn1cnc2c(Cl)ncnc21
inactive: [3] 97 % of control | [5] 104 % of control | [6] 107 % of control

C1CC[N+]2=C(C1)OCCC2
inactive: [11] 94 % of control | [4] 91 % of control | [7] 97 % of control
